The numbers were not newly measured in US9676702B2, “Methods for synthesizing amatoxin building block and amatoxins” (Heidelberg Pharma GmbH, priority 2012, dated 2017), which cites them from elsewhere.

By Kd is commonly meant a measure of binding affinity in units of concentration.

The data set concerns the target RNA-polymerase II (Homo sapiens, UniProt P24928+P30876). Particulars: non-covalent complex; background statement, no method given; read-out: KD of the complex between amanitin and RNA-polymerase II.

In the case of amanitin, the Kd is 3 nM.
